This passage reports KD results from publication PMC6343479 (2018).

For experiment [1], the system named is CTG palindrome d(CTGCTGCAGCAG) (DNA, duplex) CTGCTGCAGCAG
Briefly: ITC. The conditions noted are these: single binding model; representative curve K = (2.1 ± 0.3) ×10^6 M^-1.

The subject of experiment [2] is r(CUG)4 (RNA, repeat) CUGCUGCUGCUG
Briefly: ITC. The conditions noted are these: single binding model; representative curve K = (1.06 ± 0.30) ×10^7 M^-1.

In general, KD refers to a measure of binding affinity in units of concentration. Lower therefore signals higher affinity. Turning to `N=C(N)c1ccc(-c2ccc(-c3ccc(C(=N)N)cc3)o2)cc1`, the values for the KD in experiment [1] and in experiment [2] were 485 ± 73 nM and 99 ± 25 nM, respectively.
